Data reported in publication PMC12015462, “Prioritization of novel anti-infective stilbene derivatives by combining metabolomic data organization and a stringent 3R-infection model in a knowledge graph” (RSC Advances, 2025).
Where two headings read alike, the source gives them in different places.

Key:
Type in all cases: cell-based
Dictyostelium discoideum = experiment: Infection assay: growth of the host amoeba D. discoideum (fluorescence) in infection; conditions: for activity at 0.411523 µM / activity at 1.23457 µM / activity at 3.7037 µM / activity at 11.1111 µM / activity at 33.3333 µM / activity at 100 µM: 72 h; for IC50: read-out: IC50 Dd in infection (μM)
Text: (§1) Since fractions were not weighed individually, the injection mass was used to calculate an average mass per fraction and thus a nominal mass concentration.

Mycobacterium marinum [1] = experiment: Anti-biotic assay: M. marinum growth in broth (luminescence); conditions: for activity at 0.411523 µM / activity at 1.23457 µM / activity at 3.7037 µM / activity at 11.1111 µM / activity at 33.3333 µM / activity at 100 µM: 72 h; for IC50: read-out: IC50 Mm in broth (μM)
Procedure: as §1
Plating bacteria and compounds or fractions was performed analogously to the infection assay described above. Bacteria growth was monitored with the Agilent BioTek H1 plate reader by recording luminescence at 32 °C.
The prepared plates were sealed and stored at 4 °C overnight. On the day of the experiment, nine 10 cm Petri dishes were infected (as described before) and grouped into three pools.

Mycobacterium marinum [2] = experiment: Infection assay: intracellular M. marinum growth (luminescence) in D. discoideum; conditions: for activity at 0.411523 µM / activity at 1.23457 µM / activity at 3.7037 µM / activity at 11.1111 µM / activity at 33.3333 µM / activity at 100 µM: 72 h; for activity at 0.411523 µM: conc 0.411522634 uM; for activity at 1.23457 µM: conc 1.234567901 uM; for activity at 3.7037 µM: conc 3.703703704 uM; for activity at 11.1111 µM: conc 11.11111111 uM; for activity at 33.3333 µM: conc 33.33333333 uM; for activity at 100 µM: conc 100 uM; for IC50: interpolated between the two concentrations closest to residual growth 0.5, top concentration 100 μM
Text: as §1

[3] = read-out: mean normalized residual growth, Dd in infection
[4] = read-out: median normalized residual growth, Dd in infection
[5] = read-out: mean (normalised M. marinum growth, Mm in broth)
[6] = read-out: median (normalised M. marinum growth, Mm in broth)
[7] = vehicle control set at 1, read-out: mean normalized residual growth, Mm in infection
[8] = vehicle control set at 1, read-out: median normalized residual growth, Mm in infection

SMILES: Oc1ccc(/C=C/c2cc(O)c3c(c2)O[C@H](c2ccc(O)cc2)[C@H]3c2cc(O)c3c(c2)O[C@H](c2ccc(O)cc2)[C@H]3c2cc(O)c3c(c2)O[C@H](c2ccc(O)cc2O)[C@H]3c2cc(O)cc(O)c2)cc1 [Compound 7, Macrostachyol A]
- activity at 0.411523 µM (Dictyostelium discoideum; [3]): 143%
- activity at 1.23457 µM (Dictyostelium discoideum; [3]): 146%
- activity at 3.7037 µM (Dictyostelium discoideum; [3]): 119%
- activity at 11.1111 µM (Dictyostelium discoideum; [3]): 111%
- activity at 33.3333 µM (Dictyostelium discoideum; [3]): 63%
- activity at 100 µM (Dictyostelium discoideum; [3]): -92.9%
- activity at 0.411523 µM (Dictyostelium discoideum; [4]): 91.3%
- activity at 1.23457 µM (Dictyostelium discoideum; [4]): 90.3%
- activity at 3.7037 µM (Dictyostelium discoideum; [4]): 92%
- activity at 11.1111 µM (Dictyostelium discoideum; [4]): 91%
- activity at 33.3333 µM (Dictyostelium discoideum; [4]): 82.1%
- activity at 100 µM (Dictyostelium discoideum; [4]): 3.73%
- IC50 (Dictyostelium discoideum): 66.7 µM
- activity at 0.411523 µM (Mycobacterium marinum [1]; [5]): 118%
- activity at 1.23457 µM (Mycobacterium marinum [1]; [5]): 118%
- activity at 3.7037 µM (Mycobacterium marinum [1]; [5]): 114%
- activity at 11.1111 µM (Mycobacterium marinum [1]; [5]): 106%
- activity at 33.3333 µM (Mycobacterium marinum [1]; [5]): 112%
- activity at 100 µM (Mycobacterium marinum [1]; [5]): 107%
- activity at 0.411523 µM (Mycobacterium marinum [1]; [6]): 117%
- activity at 1.23457 µM (Mycobacterium marinum [1]; [6]): 123%
- activity at 3.7037 µM (Mycobacterium marinum [1]; [6]): 116%
- activity at 11.1111 µM (Mycobacterium marinum [1]; [6]): 105%
- activity at 33.3333 µM (Mycobacterium marinum [1]; [6]): 114%
- activity at 100 µM (Mycobacterium marinum [1]; [6]): 109%
- IC50 (Mycobacterium marinum [1]): > 100 µM
- activity at 0.411523 µM (Mycobacterium marinum [2]; [7]): 139%
- activity at 0.411523 µM (Mycobacterium marinum [2]; [8]): 130%
- activity at 1.23457 µM (Mycobacterium marinum [2]; [7]): 158%
- activity at 1.23457 µM (Mycobacterium marinum [2]; [8]): 153%
- activity at 3.7037 µM (Mycobacterium marinum [2]; [7]): 163%
- activity at 3.7037 µM (Mycobacterium marinum [2]; [8]): 154%
- activity at 11.1111 µM (Mycobacterium marinum [2]; [7]): 151%
- activity at 11.1111 µM (Mycobacterium marinum [2]; [8]): 157%
- activity at 33.3333 µM (Mycobacterium marinum [2]; [7]): 80.7%
- activity at 33.3333 µM (Mycobacterium marinum [2]; [8]): 76%
- activity at 100 µM (Mycobacterium marinum [2]; [7]): 33.4%
- activity at 100 µM (Mycobacterium marinum [2]; [8]): 37.5%
- IC50 (Mycobacterium marinum [2]): 66.7 µM

SMILES: Oc1ccc(/C=C/c2cc(O)c3c(c2)O[C@@H](c2ccc(O)cc2)[C@@H]3c2cc(O)c3c(c2)O[C@H](c2ccc(O)cc2O)[C@H]3c2cc(O)cc(O)c2)cc1 [Compound 5, (−)-Latifolol]
- activity at 0.411523 µM (Dictyostelium discoideum; [3]): 112%
- activity at 1.23457 µM (Dictyostelium discoideum; [3]): 85.8%
- activity at 3.7037 µM (Dictyostelium discoideum; [3]): 91.4%
- activity at 11.1111 µM (Dictyostelium discoideum; [3]): 75.1%
- activity at 33.3333 µM (Dictyostelium discoideum; [3]): 61%
- activity at 100 µM (Dictyostelium discoideum; [3]): -3.13%
- activity at 0.411523 µM (Dictyostelium discoideum; [4]): 93.8%
- activity at 1.23457 µM (Dictyostelium discoideum; [4]): 81.7%
- activity at 3.7037 µM (Dictyostelium discoideum; [4]): 79.8%
- activity at 11.1111 µM (Dictyostelium discoideum; [4]): 74.5%
- activity at 33.3333 µM (Dictyostelium discoideum; [4]): 69%
- activity at 100 µM (Dictyostelium discoideum; [4]): 32.8%
- IC50 (Dictyostelium discoideum): 66.7 µM
- activity at 0.411523 µM (Mycobacterium marinum [1]; [5]): 107%
- activity at 1.23457 µM (Mycobacterium marinum [1]; [5]): 108%
- activity at 3.7037 µM (Mycobacterium marinum [1]; [5]): 104%
- activity at 11.1111 µM (Mycobacterium marinum [1]; [5]): 114%
- activity at 33.3333 µM (Mycobacterium marinum [1]; [5]): 95.8%
- activity at 100 µM (Mycobacterium marinum [1]; [5]): 91%
- activity at 0.411523 µM (Mycobacterium marinum [1]; [6]): 106%
- activity at 1.23457 µM (Mycobacterium marinum [1]; [6]): 108%
- activity at 3.7037 µM (Mycobacterium marinum [1]; [6]): 107%
- activity at 11.1111 µM (Mycobacterium marinum [1]; [6]): 116%
- activity at 33.3333 µM (Mycobacterium marinum [1]; [6]): 102%
- activity at 100 µM (Mycobacterium marinum [1]; [6]): 102%
- IC50 (Mycobacterium marinum [1]): > 100 µM
- activity at 0.411523 µM (Mycobacterium marinum [2]; [7]): 116%
- activity at 0.411523 µM (Mycobacterium marinum [2]; [8]): 112%
- activity at 1.23457 µM (Mycobacterium marinum [2]; [7]): 160%
- activity at 1.23457 µM (Mycobacterium marinum [2]; [8]): 158%
- activity at 3.7037 µM (Mycobacterium marinum [2]; [7]): 192%
- activity at 3.7037 µM (Mycobacterium marinum [2]; [8]): 178%
- activity at 11.1111 µM (Mycobacterium marinum [2]; [7]): 136%
- activity at 11.1111 µM (Mycobacterium marinum [2]; [8]): 125%
- activity at 33.3333 µM (Mycobacterium marinum [2]; [7]): 81.5%
- activity at 33.3333 µM (Mycobacterium marinum [2]; [8]): 81.6%
- activity at 100 µM (Mycobacterium marinum [2]; [7]): 2.94%
- activity at 100 µM (Mycobacterium marinum [2]; [8]): 7.57%
- IC50 (Mycobacterium marinum [2]): 66.7 µM

SMILES: Oc1ccc(/C=C/c2cc(O)c3c(c2)O[C@H](c2ccc(O)cc2O)[C@@H]3c2cc(O)cc(O)c2)cc1 (relative stereo) [Compound 2, (+)-Gnetupendin C]
- activity at 0.411523 µM (Dictyostelium discoideum; [3]): 94.2%
- activity at 1.23457 µM (Dictyostelium discoideum; [3]): 97.6%
- activity at 3.7037 µM (Dictyostelium discoideum; [3]): 98.8%
- activity at 11.1111 µM (Dictyostelium discoideum; [3]): 105%
- activity at 33.3333 µM (Dictyostelium discoideum; [3]): 101%
- activity at 100 µM (Dictyostelium discoideum; [3]): 114%
- activity at 0.411523 µM (Dictyostelium discoideum; [4]): 101%
- activity at 1.23457 µM (Dictyostelium discoideum; [4]): 91.8%
- activity at 3.7037 µM (Dictyostelium discoideum; [4]): 86%
- activity at 11.1111 µM (Dictyostelium discoideum; [4]): 76.8%
- activity at 33.3333 µM (Dictyostelium discoideum; [4]): 74.6%
- activity at 100 µM (Dictyostelium discoideum; [4]): 83.1%
- IC50 (Dictyostelium discoideum): > 100 µM
- activity at 0.411523 µM (Mycobacterium marinum [1]; [5]): 97.4%
- activity at 1.23457 µM (Mycobacterium marinum [1]; [5]): 103%
- activity at 3.7037 µM (Mycobacterium marinum [1]; [5]): 113%
- activity at 11.1111 µM (Mycobacterium marinum [1]; [5]): 109%
- activity at 33.3333 µM (Mycobacterium marinum [1]; [5]): 110%
- activity at 100 µM (Mycobacterium marinum [1]; [5]): 109%
- activity at 0.411523 µM (Mycobacterium marinum [1]; [6]): 95.6%
- activity at 1.23457 µM (Mycobacterium marinum [1]; [6]): 101%
- activity at 3.7037 µM (Mycobacterium marinum [1]; [6]): 111%
- activity at 11.1111 µM (Mycobacterium marinum [1]; [6]): 108%
- activity at 33.3333 µM (Mycobacterium marinum [1]; [6]): 109%
- activity at 100 µM (Mycobacterium marinum [1]; [6]): 109%
- IC50 (Mycobacterium marinum [1]): > 100 µM
- activity at 0.411523 µM (Mycobacterium marinum [2]; [7]): 112%
- activity at 0.411523 µM (Mycobacterium marinum [2]; [8]): 122%
- activity at 1.23457 µM (Mycobacterium marinum [2]; [7]): 145%
- activity at 1.23457 µM (Mycobacterium marinum [2]; [8]): 143%
- activity at 3.7037 µM (Mycobacterium marinum [2]; [7]): 154%
- activity at 3.7037 µM (Mycobacterium marinum [2]; [8]): 147%
- activity at 11.1111 µM (Mycobacterium marinum [2]; [7]): 167%
- activity at 11.1111 µM (Mycobacterium marinum [2]; [8]): 167%
- activity at 33.3333 µM (Mycobacterium marinum [2]; [7]): 109%
- activity at 33.3333 µM (Mycobacterium marinum [2]; [8]): 105%
- activity at 100 µM (Mycobacterium marinum [2]; [7]): 27.8%
- activity at 100 µM (Mycobacterium marinum [2]; [8]): 35.5%
- IC50 (Mycobacterium marinum [2]): 66.7 µM
